Results from patent US20230158041A1, “METHODS AND COMPOSITIONS FOR TREATING AUTOSOMAL DOMINANT POLYCYSTIC KIDNEY DISEASE” (OTSUKA PHARMACEUTICAL CO.,LTD., priority 2021, published 2023).
Entries after “also recorded” stand apart in the source; their conditions may differ. Marks after values point to notes of the source that are not given here.

Legend:
[1] = Earlier clinical data for tolvaptan and DM-4103 (PK, tolerability; data on file); assay type: in vivo, human
(OAT)3 [2] = molecular target: T1, (OAT)3 (Homo sapiens, UniProt Q8TCC7); assay: Estrone 3-sulfate transport inhibition in HEK293 cells stably expressing human (OAT)3; assay type: cell-based; set-up: host or cells: HEK293
T1 sequence (Q8TCC7 1-542): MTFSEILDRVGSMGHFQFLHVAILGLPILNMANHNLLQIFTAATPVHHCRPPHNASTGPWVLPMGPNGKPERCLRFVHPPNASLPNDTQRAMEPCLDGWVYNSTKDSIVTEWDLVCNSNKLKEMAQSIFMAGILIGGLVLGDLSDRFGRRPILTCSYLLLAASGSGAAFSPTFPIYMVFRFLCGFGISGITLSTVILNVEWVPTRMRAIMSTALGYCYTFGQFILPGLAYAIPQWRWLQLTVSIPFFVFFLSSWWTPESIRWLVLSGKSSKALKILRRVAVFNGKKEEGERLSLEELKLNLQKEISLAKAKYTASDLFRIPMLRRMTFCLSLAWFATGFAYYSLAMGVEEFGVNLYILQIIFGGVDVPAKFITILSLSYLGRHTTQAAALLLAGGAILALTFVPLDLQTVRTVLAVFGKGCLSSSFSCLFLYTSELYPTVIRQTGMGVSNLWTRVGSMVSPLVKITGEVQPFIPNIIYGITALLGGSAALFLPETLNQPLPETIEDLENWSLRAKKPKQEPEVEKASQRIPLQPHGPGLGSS
Procedure: (OAT)3: Estrone 3-sulfate transport was evaluated in HEK293 cells stably expressing human (OAT)3 (kit with ready to use 24 well plates were obtained from GenoMembrane). […] DM-4103 concentrations of 0.064, 0.32, 1.6, 8.0, 40, and 200 μM were tested.

plasma protein = assay: DM-4103 plasma protein binding, micropartition device (Centrifree YM-30) with HPLC-MS/MS; assay type: in vitro ADME
Procedure: The effect of six other highly plasma protein bound compounds on DM-4103 binding was also evaluated. […] No potential for interaction at either transporter would have been predicted if a free fraction of 0.1% had been used, consistent with the clinical findings.

(OAT)3 [3] = molecular target: T1, (OAT)3; assay: Trial 2: (OAT)3 inhibition, furosemide in presence of DM-4103 vs. furosemide alone; assay type: in vivo; set-up: endogenous in cells; host or cells: healthy human subjects, in vivo; conditions: furosemide 48 hours following 7 days of 300 mg tolvaptan q.d.
human (OATP)1B1 = molecular target: T2, human (OATP)1B1 (Homo sapiens, UniProt Q9Y6L6)
T2 sequence (Q9Y6L6 1-691): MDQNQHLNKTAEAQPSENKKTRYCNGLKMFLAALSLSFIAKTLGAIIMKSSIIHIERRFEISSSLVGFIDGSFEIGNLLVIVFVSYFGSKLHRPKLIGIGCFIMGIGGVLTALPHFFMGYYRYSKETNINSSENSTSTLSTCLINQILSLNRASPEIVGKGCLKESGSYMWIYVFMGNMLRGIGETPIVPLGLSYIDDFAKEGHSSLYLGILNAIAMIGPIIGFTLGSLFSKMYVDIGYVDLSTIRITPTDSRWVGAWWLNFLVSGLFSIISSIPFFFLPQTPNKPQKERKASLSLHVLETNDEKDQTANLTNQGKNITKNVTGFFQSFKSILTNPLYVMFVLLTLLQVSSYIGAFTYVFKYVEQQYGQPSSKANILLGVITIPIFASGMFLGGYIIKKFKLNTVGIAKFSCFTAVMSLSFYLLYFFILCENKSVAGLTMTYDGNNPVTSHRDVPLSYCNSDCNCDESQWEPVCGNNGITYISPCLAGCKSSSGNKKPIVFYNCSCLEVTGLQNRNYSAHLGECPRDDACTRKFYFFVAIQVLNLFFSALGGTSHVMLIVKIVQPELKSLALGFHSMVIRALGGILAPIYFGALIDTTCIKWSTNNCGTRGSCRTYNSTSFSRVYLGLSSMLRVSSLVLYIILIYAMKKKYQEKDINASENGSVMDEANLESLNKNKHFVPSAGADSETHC
Procedure: (OATP)1B1: Estradiol 17β-D-glucuronide transport was evaluated in HEK293 cells stably expressing human (OATP)1B1 (kit with ready to use 24 well plates were obtained from GenoMembrane). […] DM-4103 concentrations of 0.064, 0.32, 1.6, 8.0, 40, and 200 μM were tested.

[4] = Trial 1: plasma rosuvastatin PK, tolvaptan and DM-4103 plasma concentrations, adverse events in healthy subjects
Procedure: (§1) Trial 1 was designed as an open-label, 3-period, sequential crossover. […] On days 7 to 13, 300 mg tolvaptan was administered q.d.
Doses on pharmacokinetic (PK) sampling days were administered in the fasted state with 240 ml of room temperature still water. No food was allowed from 10 h prior to dosing until lunch was given following the 4 h post-dose assessments; water was available ad libitum except for +/−2 h around dosing. On non-PK sampling days, tolvaptan was administered at least 30 min prior to breakfast. Safety was evaluated by laboratory values, vital signs, and 12-lead electrocardiogram (ECG) at screening, day 1, and discharge (no ECG), and adverse event reports.
A 90 mg dose of tolvaptan was chosen as it is the highest dose administered at any given time in the treatment of ADPKD.
The assay used to determine plasma tolvaptan concentrations also included DM-4103 as a standard. The precursor→production was m/z 479→252.

[5] = in vivo; cited from earlier work
[6] = molecular target: T3, sodium-dependent tauro-cholate co-transporting polypeptide (NTCP) (Homo sapiens, UniProt Q14973); conditions: cited from earlier work
T3 sequence (Q14973 1-349): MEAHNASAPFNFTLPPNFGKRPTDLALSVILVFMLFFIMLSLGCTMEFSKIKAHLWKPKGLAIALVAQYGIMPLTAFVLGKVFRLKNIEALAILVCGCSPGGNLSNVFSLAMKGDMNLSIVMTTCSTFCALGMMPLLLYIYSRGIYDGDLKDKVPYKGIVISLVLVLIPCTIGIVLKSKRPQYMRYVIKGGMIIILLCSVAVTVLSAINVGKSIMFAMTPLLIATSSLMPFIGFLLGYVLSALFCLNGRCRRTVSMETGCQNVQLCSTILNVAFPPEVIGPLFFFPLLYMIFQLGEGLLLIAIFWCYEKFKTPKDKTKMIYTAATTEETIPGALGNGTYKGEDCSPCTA

[7] = Phase III ADPKD trials: statin use with tolvaptan; assay type: in vivo, human; conditions: subjects taking tolvaptan alone or tolvaptan plus statins
BCRP [8] = molecular target: T4, BCRP (Homo sapiens, UniProt Q9UNQ0)
T4 sequence (Q9UNQ0 1-655): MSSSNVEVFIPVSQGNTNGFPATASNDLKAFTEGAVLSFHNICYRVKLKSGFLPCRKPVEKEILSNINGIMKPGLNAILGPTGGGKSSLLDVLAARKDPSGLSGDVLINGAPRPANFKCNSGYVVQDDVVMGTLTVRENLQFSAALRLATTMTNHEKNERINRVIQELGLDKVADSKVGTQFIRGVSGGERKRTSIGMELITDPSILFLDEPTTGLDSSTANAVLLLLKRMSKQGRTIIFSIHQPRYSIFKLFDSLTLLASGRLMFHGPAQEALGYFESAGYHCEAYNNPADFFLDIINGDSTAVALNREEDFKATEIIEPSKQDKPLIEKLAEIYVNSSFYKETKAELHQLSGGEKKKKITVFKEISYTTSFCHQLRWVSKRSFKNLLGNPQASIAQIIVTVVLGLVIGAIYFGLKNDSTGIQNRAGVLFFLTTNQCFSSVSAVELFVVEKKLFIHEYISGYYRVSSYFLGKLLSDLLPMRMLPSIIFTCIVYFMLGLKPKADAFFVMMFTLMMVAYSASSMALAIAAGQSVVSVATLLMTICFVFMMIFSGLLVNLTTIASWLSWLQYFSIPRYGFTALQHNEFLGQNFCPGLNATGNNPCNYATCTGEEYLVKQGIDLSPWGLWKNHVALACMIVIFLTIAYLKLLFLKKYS
Procedure: BCRP: Prazosin transport was evaluated in MDCKII BCRP-expressing cells (obtained from SOLVO Biotechnology) precultured for six to eight days.

Tolvaptan solubility = assay type: physicochemical; conditions: pH independent
[9] = 300 mg tolvaptan for 5 days, healthy subjects; cited from earlier work
BCRP [10] = molecular target: T4, BCRP; assay: Trial 1: BCRP inhibition, rosuvastatin + tolvaptan vs. rosuvastatin alone; assay type: in vivo; set-up: endogenous in cells; host or cells: healthy human subjects, in vivo; conditions: 90 mg tolvaptan with 5 mg rosuvastatin calcium
Procedure: as §1
An analysis of variance with a factor of period and random effect of subjects was performed on the natural-log transformed PK parameters using the MIXED procedure in SAS. From each analysis, the least square means, their difference, and the 90% CI for their difference were derived. Then, the anti-logs of the difference and the confidence limits provided the estimate and 90% CI for the ratio of the geometric means of the test treatment to the reference treatment. Only subjects with values in both treatments were used in the analysis.

[11] = Phase II and III congestive heart failure trials: tolvaptan with furosemide; assay type: in vivo, human; conditions: tolvaptan+furosemide compared with placebo+furosemide
[12] = test system: sandwich-cultured human hepatocytes; conditions: cited from earlier work
[13] = predicted; cited from earlier work

SMILES: Cc1ccccc1C(=O)Nc1ccc(C(=O)Nc2ccc(Cl)cc2C(=O)CCC(=O)O)c(C)c1 [DM-4103]
- plasma concentrations ([1]; first 2 hours following a 90 mg tolvaptan dose): less than 100 ng/ml
- elimination half-life ([1]; human, in vivo): ~180 h
- time to steady-state concentrations after the start of tolvaptan dosing ([1]; human, in vivo): ~8 weeks
- IC50 ((OAT)3 [2]; (OAT)3 overexpressing HEK293 cells, read-out: IC50 estimate, inhibition of estrone 3-sulfate transport): 425 nM
- DM-4103 concentration at which the ratio is equal to 0.1 ((OAT)3 [2]; Imax,u/IC50 for (OAT)3, fu,p 0.01): ~2034 ng/mL
- inhibitor of (OAT)3 in vitro ((OAT)3 [2]; in vitro): inhibitor
- plasma protein binding (PPB) (plasma protein): greater than 99.8%
- DM-4103 binding in presence of six other highly plasma protein bound compounds (plasma protein; all samples, no interactions detected): greater than 99.8%
- inhibition of (OAT)3 in healthy subjects ((OAT)3 [3]): No inhibition; also recorded: not an inhibitor
- IC50 (human (OATP)1B1): 255 nM
- inhibitor of (OATP)1B1 in vitro (human (OATP)1B1): inhibitor

SMILES: CC(C)c1nc(N(C)S(C)(=O)=O)nc(-c2ccc(F)cc2)c1/C=C/[C@@H](O)C[C@@H](O)CC(=O)O [rosuvastatin]
- Tmax ([4]; 5 mg ROS in presence of DM-4103, median): 4.00 h
- Tmax ([4]; 5 mg rosuvastatin + 90 mg tolvaptan, median): 3.03 h
- TEAE incidence: nausea ([4]; human, in vivo): 12.5%
- AUCt ([4]; human, in vivo, 5 mg): 18.9 ng·h/mL
- AUC∞ ([4]; human, in vivo, 5 mg): 20.3-36.0** ng*h/ml
- Cmax ([4]; human, in vivo, 5 mg): 2.81 ng/mL
- Tmax ([4]; human, in vivo, 5 mg): 3.50 h
- t1/2, z ([4]; human, in vivo, 5 mg): 2.4-4.3** h
- observed increases in rosuvastatin maximal peak plasma concentration (Cmax) [5]: up to 11 fold

SMILES: CCCN(CCC)S(=O)(=O)c1ccc(C(=O)O)cc1 [Probenecid]
- inhibition at 30 µM ((OAT)3 [2]; HEK293, read-out: inhibition of estrone 3-sulfate transport): 91.1%

SMILES: Cc1ccccc1C(=O)Nc1ccc(C(=O)N2CCCC(O)c3cc(Cl)ccc32)c(C)c1 (stereo not shown) [tolvaptan, 7-chloro-5-hydroxy-1-[2-methyl-4-(2-methylbenzoylamino)benzoyl]-2,3,4,5-tetrahydro-1H-benzoazepine]
- NTCP IC50 value relative to Cmax [6]: higher than Cmax
- inhibitor of NTCP [6]: inhibitor of NTCP
- statin use or incidences of statin-related adverse events [7]: no differences
- IC50 (BCRP [8]): 8320 nM
- Igut/IC50 (printed as predicted Ki) (BCRP [8]; human): 96.4
- half-life ([1]; human, in vivo): ~3.5 h
- accumulation ([1]; steady-state concentrations achieved on day 1): no accumulation
- solubility (Tolvaptan solubility): about 0.01 g/250 ml
- safety and tolerability [9]: safe and well-tolerated
- inhibition of BCRP in healthy subjects (BCRP [10]): No clinically-relevant inhibition
- incidence of adverse events [11]: similar
- accumulation in sandwich-cultured human hepatocytes [12]: at least 10 fold
- liver:blood ratio [13]: 38.76
